The source of these data is paper PMC8131319, “The molecular basis of spectral tuning in blue- and red-shifted flavin-binding fluorescent proteins” (The Journal of Biological Chemistry, 2021).

Common to all, as to test: X-ray crystallography
Holding throughout (type): binding

For assay [1], the target named is T1, iLOV (Arabidopsis thaliana, UniProt P93025, S394T/S409G/C426A/I452T/F470L/M475V/Q489K).
T1 construct: gene PHOT2; improved LOV2 domain (about residues 387-496 of phot2), expressed in E. coli from pET28a, His-tag (IMAC), monomer about 10 kDa
T1 sequence (P93025 387-496 S394T/S409G/C426A/I452T/F470L/M475V/Q489K limits assumed): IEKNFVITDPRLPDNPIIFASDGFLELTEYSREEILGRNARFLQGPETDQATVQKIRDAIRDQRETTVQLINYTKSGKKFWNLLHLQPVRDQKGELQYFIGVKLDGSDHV
To be noted: 1.45 Å; space group P4_32_12; pH 4.6; noncovalent; acetate ion near FMN-N5.

In assay [2] the target is T2, CagFbFP (Chloroflexus aggregans, UniProt B8GAY9, I52T/C85A).
T2 construct: gene Cagg_3753; LOV domain from residue 47 (about 47-153), C-terminal His-tag, expressed in E. coli from pET11, homodimer
T2 sequence (B8GAY9 entry or part of it I52T/C85A): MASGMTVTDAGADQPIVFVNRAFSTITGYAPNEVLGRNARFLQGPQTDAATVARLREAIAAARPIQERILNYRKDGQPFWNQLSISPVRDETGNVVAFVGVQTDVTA
To be noted: pH 5.5; noncovalent; structure virtually identical to parental CagFbFP.

Assay [3] concerns the target T3, CagFbFP (Chloroflexus aggregans, UniProt B8GAY9, C85A/Q148K).
T3 construct: gene Cagg_3753; LOV domain from residue 47 (about 47-153), C-terminal His-tag, expressed in E. coli from pET11, homodimer
The following applies: 1.36 Å; pH 6.5; noncovalent; morpholine fragment near FMN; second structure 6YX6.

The target of assay [4] is T4, CagFbFP (Chloroflexus aggregans, UniProt B8GAY9, I52T/C85A/Q148K).
T4 construct: gene Cagg_3753; LOV domain from residue 47 (about 47-153), C-terminal His-tag, expressed in E. coli from pET11, homodimer
T4 sequence (B8GAY9 entry or part of it I52T/C85A/Q148K): as the sequence (B8GAY9 entry or part of it I52T/C85A) above, with Q102K counted along it
The following applies: 1.8 Å; space group P2_12_12; pH 5.0; noncovalent.

T3 sequence (B8GAY9 entry or part of it C85A/Q148K): as the sequence (B8GAY9 entry or part of it I52T/C85A) above, with T6I, Q102K counted along it

Regarding `Cc1cc2nc3c(=O)[nH]c(=O)nc-3n(C[C@H](O)[C@H](O)[C@H](O)COP(=O)(O)O)c2cc1C` [FMN], the X-ray crystallography result in assay [1] was “hydrogen bond network to FMN and N468”; in assay [2] it was “X-ray structure of CagFbFP-I52T”; in assay [3], “side chain of the introduced lysine is facing away from FMN”; in assay [4], “structure of CagFbFP–I52T–Q148K with hydrogen bonds between K148, T52, and the FMN”.
